Data: patent US20260217691A1, “FOXM1 INHIBITORS AND THEIR USE IN TREATING CANCERS” (THE BOARD OF TRUSTEES OF THE UNIVERSITY OF ILLINOIS, priority 2022, published 2026)

Legend:
[1] = target: T1, FOXM1 (Homo sapiens, UniProt Q08050); test: FOXM1 protein levels by immunoblotting in leukemia/AML cell lines; format: cell-based; design: Total protein samples obtain from treated cells were analyzed for FOXM1 protein levels via immunoblotting; endogenous in cells; host or cells: KG-1, HL-60, K562, THP-1 leukemia cell lines; settings: KG-1 cells; for effect on FOXM1 protein levels suppressed by STL001: co-treatment with STL001, 24 h
T1 sequence (Q08050 1-763): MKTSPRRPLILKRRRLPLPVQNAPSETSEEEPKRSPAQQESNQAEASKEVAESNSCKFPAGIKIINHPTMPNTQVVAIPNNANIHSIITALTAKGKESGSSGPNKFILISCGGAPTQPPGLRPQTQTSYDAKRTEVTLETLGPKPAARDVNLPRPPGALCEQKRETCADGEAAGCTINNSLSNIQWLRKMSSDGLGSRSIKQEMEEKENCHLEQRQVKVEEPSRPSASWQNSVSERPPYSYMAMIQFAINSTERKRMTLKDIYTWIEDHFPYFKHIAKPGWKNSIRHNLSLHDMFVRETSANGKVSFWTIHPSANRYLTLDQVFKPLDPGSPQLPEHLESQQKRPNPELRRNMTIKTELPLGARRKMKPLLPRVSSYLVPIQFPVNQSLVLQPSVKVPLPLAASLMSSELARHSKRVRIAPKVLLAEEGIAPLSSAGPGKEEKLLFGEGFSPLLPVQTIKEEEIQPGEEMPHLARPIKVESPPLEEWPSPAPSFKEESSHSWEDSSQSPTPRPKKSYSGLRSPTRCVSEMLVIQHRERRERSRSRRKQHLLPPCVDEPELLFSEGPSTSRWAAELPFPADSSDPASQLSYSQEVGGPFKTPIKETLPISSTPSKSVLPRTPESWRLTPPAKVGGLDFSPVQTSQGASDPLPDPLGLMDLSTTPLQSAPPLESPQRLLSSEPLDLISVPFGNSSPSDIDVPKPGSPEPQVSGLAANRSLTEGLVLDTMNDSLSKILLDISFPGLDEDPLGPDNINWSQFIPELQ
Description: [a] Leukemia cells, KG-1, HL-60 and K562 were treated with increasing concentrations of STL427944 for 24 hrs. […] [b] THP1 and KG-1 cells were treated with indicated concentrations of venetoclax and STL427944 alone or in combination for 24 hrs. [c] KG-1 and K562 cells were treated with indicated concentrations of cytarabine and STL427944 alone or in combination for 24 hrs.
FIG. 8. STL427944 treatment of human leukemia cell lines suppress FOXM1 protein expression. (a) STL427944 treatment of human leukemia cell lines inhibit FOXM1 protein expression and sensitize cells to venetoclax treatment. […] (b) Stable shRNA-mediated FOXM1 knockdown prominently sensitizes KG-1 cells to cytotoxic effect of venetoclax. (c, d) combined treatment with STL427944 and venetoclax suppresses FOXM1 in KG-1 and THP-1 cells and synergistically promotes cytotoxic effects similarly to FOXM1 knockdown. Total protein was isolated from cells immediately after the treatment and analyzed via immunoblotting with FOXM1 antibodies). Apoptosis induction was estimated based on caspase-3 cleavage.
FIGS. 9A and 9B: Novel FOXM1 inhibitor STL001 sensitizes Leukemia cells to chemotherapy agents. [a] Structural formula of novel FOXM1 inhibitor STL001. [b] Leukemia cells, KG-1, HL-60, and K562 were treated with increasing concentrations of STL001 for 24 hrs. […] [c] KG-1 cells were treated with indicated concentrations of Laptomycin B, Chloroquine, and STL001 for 24 hrs. […] [d] KG-1, HL-60, and K562 cells were treated with indicated concentrations of venetoclax and STL001 alone or in combination for 24 hrs. [e] KG-1, HL-60, and K562 cells were treated with indicated concentrations of cytarabine and STL alone or in combination for 24 hrs.
FIGS. 13A-13H STL001 is a novel FOXM1 inhibitor that sensitizes leukemia cells to standard cytotoxic and bcl2 inhibitor therapies. FIG. 13A AML cell line KG-1 treated with precursor compound STL427944. FIG. 3B AML cell lines KG-1, HL-60, and K562 were treated with increasing concentrations of STL001 for 24 h. Total protein samples obtained from treated cells were analyzed for FOXM1 protein levels using immunoblotting; β-actin was used as the internal loading control. FIG. 13C KG-1, HL-60, and K562 cells were treated with indicated concentrations of venetoclax and STL001 alone or in combination for 24 h. FIG. 13D KG-1, HL-60, and K562 cells were treated with indicated concentrations of cytarabine and STL001 alone or in combination for 24 h. […] FIG. 13E KG-1 cells were treated with indicated concentrations of Leptomycin B, Chloroquine, and STL001 for 24 h. Total protein samples obtained from treated cells were analyzed for FOXM1 protein levels via immunoblotting; β-actin was used as an internal loading control. FIG. 13F KG-1 cell lines with shRNA knockdown of FOXM1 were treated with venetoclax and STL001 and compared to parental cells. FIG. 13G Real-time PCR-based expression profiling for canonical FOXM1 target genes was performed on primary AML mononuclear cells (n=5) treated ex vivo with STL001 5 μM for 24 h. Mean and standard error of the delta Ct for DMSO or treatment group are plotted for each gene. P-value is estimated by two-tailed paired t-test. Asterisks denote P<0.05. FIG. 13H Treatment of peripheral blood mononuclear cells with STL001 for 24 h followed by immunohistochemistry for FOXM1. Slides were scanned on an Aperio AT2 brightfield scanner and images were analyzed using HALO 2.0 software. Hematoxylin counterstain was used to segment nuclei within the ROIs and to establish an accurate cell count. Percent cells with nuclear FOXM1 expression compared between DMSO and STL001 treated cells. P-value is based on one-tailed paired t-test.

[2] = test system: 22RV1, LNCaP cells
Description: (§1) FIG. 17. […] (A) Prostate cancer (22RV1 and LNCaP) cells were treated with indicated concentrations of paclitaxel alone or in combination with STL001 for 24 hrs. (B) Tamoxifen resistance MCF-7 breast cancer cells (TAM-R) were treated with indicated concentrations of Tamoxifen alone or in combination with STL001 for 24 hrs. In all cases, total protein samples were obtained from cells immediately after treatment and analyzed for FOXM1, cleaved caspase-3 levels via immunoblotting, β-actin was used as internal loading control (n=3). (C) Percent (%) dead cells in TAM-R cells treated with indicated concentrations of Tamoxifen alone or in combination with STL001 for 24 hrs. […] (F) HCC 143 cells with stable shRNA-mediated FOXM1 knockdown (KD) were treated with doxorubicin alone or in combination with STL001 for 24 hrs and compared to parental cells under the same treatment conditions. In all cases, total protein samples were obtained from cells immediately after treatment and analyzed for FOXM1, cleaved caspase-3 levels via immunoblotting, β-actin was used as internal loading control (n=3).

[3] = target: T1, FOXM1; test: FOXM1 protein levels by immunoblotting in solid cancer cell lines
Description: Cell culture: Human cell lines LNCaP and 22Rv1 (human prostate carcinoma), OVCAR8 and ES-2 (High-grade serous ovarian cancer, HGSOC), HCT-116 and HCT-FET (human colorectal carcinoma), HCC-1143 (triple negative breast cancer (TNBC), TAMR (Tamoxifen resistant MCF7) human breast cancer, were provided from various investigators. LNCaP and 22Rv1 cell lines were cultured in RPMI-1640 with 2 mM L-Glutamine (Gibco; Thermo Fisher Scientific, Waltham, MA, USA). HCC-1143 cell lines were cultured in Iscove's Modified Dulbecco Medium (IMDM) with 2 mM L-Glutamine (Gibco; Thermo Fisher Scientific). OVCAR-8, ES-2, HCT-116, and HCT-FET cell lines were cultured in Dulbecco's Modified Eagle Medium (DMEM) with 4.5 g/L glucose and 4 mM L-Glutamine (Gibco; Thermo Fisher Scientific). For all cell lines, the growth media was supplemented with 10% Foetal Bovine Serum (FBS), penicillin (100 U/mL), and 100 μg/mL streptomycin (Gibco; Thermo Fisher Scientific). TAMR cells were routinely cultured in DMEM/F12 medium without phenol red (Gibco; Thermo Fisher Scientific), containing 1% charcoal-striped FBS, 2.5 mM L-Glutamine (Thermo Fisher Scientific), 6 ng/mL insulin (Millipore Sigma) and 50 nM 4-hydroxytamoxifen (4-OHT; Millipore Sigma). All cell lines were grown and maintained at 37° C. in a humidified incubator with 5% CO2. Sub-confluent cultures (70-80%) were split 1:5 using 0.25% Trypsin/EDTA (Millipore Sigma).
Drug treatment of cultured cells: After harvesting, cells were counted in presence of Trypan Blue (Thermo Fisher Scientific) and seeded onto tissue culture plates to achieve ~50% confluency. The next day, treatment of cells was performed by aspirating the nonadherent cells and growth medium and replacing it with the fresh one containing selected concentrations of drugs. For Tamoxifen based studies, the nonadherent cells and growth media was aspirated and replaced with the DMEM supplemented with 4.5 g/L glucose and 4 mM L-Glutamine, 10% FBS, penicillin (100 U/mL), 100 μg/mL streptomycin, 10 nM estrogen, and selected concentrations of drugs. […] Post-treatment at selected times, the cells were harvested, washed with ice-cold PBS and used for protein or RNA purification as described below.
Protein immunoblotting: Total protein was extracted using ice-cold radio-immunoprecipitation assay (RIPA) buffer (Millipore Sigma) supplemented with Halt protease- and phosphatise-inhibitor cocktails (Fisher Scientific), 2 mM sodium orthovanadate (New England Biolabs, Inc., USA), and 5 mM sodium fluoride (Millipore Sigma) according to the manufacturer's protocol. Protein content in each sample was estimated using Bio-Rad Protein Assay (Bio-Rad, USA). Equal amounts of protein (20-30 μg) were separated on hand-cast SDS/PAGE (6-12%) mini-protein gels and transferred to 0.2 μm Immobilon-Psq polyvinylidene difluoride (PVDF) transfer membrane (Millipore Sigma). Membranes were blocked with 4% bovine serum albumin (BSA; Millipore Sigma) in TRIS-buffered saline (TBS) with 0.1% Tween-20 (TBS-T, Thermo Fisher Scientific) and probed overnight at 4° C. with the primary antibodies (FOXM1, Cell Signaling Technology (CST), Inc., USA; Cleaved Caspase-3, CST; β-actin, Thermo Fisher Scientific) diluted according to the manufacturer's protocol. […] After incubating membranes with the secondary antibodies, the membranes were then washed three times for 10 min each with TBST. Protein bands were developed using SuperSignal™ West Pico PLUS Chemiluminescent Substrate (Thermo Fisher Scientific) and detected using ChemiDoc Imaging System (Bio-Rad).

[4] = test system: TAMR cells; format: cell-based
Description: as §1

[5] = test system: KG-1, HL-60, K562, THP-1 cells; format: cell-based; settings: KG-1 cells
[6] = test system: HCC-1143 cells
Description: as §1
Stable FOXM1-expression knockdown in cancer cell: Cells were seeded on commercially available 12-well tissue culture plates to achieve ~40% confluency. […] Transduced cells were selected by their cultivation with puromycin (1.0 μg/mL) for 10 days and then maintained without puromycin as described above.

[7] = test system: NPM1c mutant AML cells; settings: cited from earlier work
[8] = test system: HCT-116 and HCT-FET cells; test: Chemosensitization (caspase-3 cleavage) of colorectal cancer cells to 5′FU; format: cell-based, human
Description: FIG. 16. […] (A) Ovarian cancer (OVCAR-8 and ES-2) cells were treated with indicated concentrations of Doxorubicin (Doxo) alone or in combination with STL001 for 24 hrs. […] (C) colon cancer (HCT-116 and FET) cells were treated with indicated concentrations of 5′FU alone or in combination with STL001 for 24 hrs.

CCC(=C/[C@H](C)C/C=C/C(C)=C/[C@@H](C)C(=O)[C@@H](C)[C@H](O)[C@@H](C)C/C(C)=C/C(=O)O)/C=C/[C@@H]1OC(=O)C=C[C@@H]1C [Leptomycin B]
effect on FOXM1 protein levels suppressed by STL001 [1]: rescued FOXM1 protein levels

CC(=O)O[C@H]1C(=O)[C@@]2(C)[C@H]([C@H](OC(=O)c3ccccc3)[C@]3(O)C[C@H](OC(=O)[C@H](O)[C@@H](NC(=O)c4ccccc4)c4ccccc4)C(C)=C1C3(C)C)[C@]1(OC(C)=O)CO[C@@H]1C[C@@H]2O [paclitaxel]
cytotoxic effects, chemotherapeutic alone [2]: without showing any cytotoxic effects | cellular FOXM1 protein levels, chemotherapeutic alone ([3]; 22RV1, LNCaP, sublethal concentrations): prominent increase in cellular FOXM1 protein levels

CC/C(=C(\c1ccccc1)c1ccc(OCCN(C)C)cc1)c1ccccc1 [tamoxifen]
cell death, tamoxifen alone [4]: without prominent cell death induction | FOXM1 level, tamoxifen alone ([3]; TAMR cells): FOXM1 upregulation

C=C(NC(=O)C(=C)NC(=O)c1csc(C2=N[C@@H]3c4csc(n4)[C@H]4NC(=O)c5csc(n5)[C@H]([C@](C)(O)[C@@H](C)O)NC(=O)[C@H]5CSC(=N5)/C(=C/C)NC(=O)[C@H]([C@@H](C)O)NC(=O)c5csc(n5)[C@]3(CC2)NC(=O)[C@H](C)NC(=O)C(=C)NC(=O)[C@H](C)NC(=O)[C@H]([C@@H](C)CC)N[C@@H]2C=Cc3c([C@H](C)O)cc(nc3[C@H]2O)C(=O)O[C@@H]4C)n1)C(N)=O [thiostrepton]
apoptosis (caspase-3 cleavage) in combination with cytarabine [5]: synergistic induction of apoptosis | FOXM1 level [1]: down-regulation of FOXM1

COc1cccc2c1C(=O)c1c(O)c3c(c(O)c1C2=O)C[C@@](O)(C(=O)CO)C[C@@H]3O[C@H]1C[C@H](N)[C@H](O)[C@H](C)O1 [doxorubicin]
cytotoxic effects, DNA-damaging agent alone [6]: without showing prominent cytotoxic effects | cellular FOXM1 protein, DNA-damaging agent alone ([3]; HCC-1143, sub-lethal concentrations): significantly higher levels of cellular FOXM1 protein | FOXM1 protein abundance, chemotherapeutic alone ([3]; OVCAR-8, ES-2, sub-lethal concentrations): significant increase in FOXM1 protein abundance

CC(C)C[C@H](NC(=O)[C@H](Cc1ccccc1)NC(=O)c1cnccn1)B(O)O [bortezomib]
apoptosis (caspase-3 cleavage) in combination with cytarabine [5]: synergistic induction of apoptosis | FOXM1 level [1]: down-regulation of FOXM1

CCN(CC)CCCC(C)Nc1ccnc2cc(Cl)ccc12 (centres unmarked) [Chloroquine]
effect on FOXM1 protein levels suppressed by STL001 [1]: rescued FOXM1 protein levels

CC(C)N(C(=O)c1cc(F)ccc1Oc1cncnc1N1CC2(CCN(CC3CCC(NS(C)(=O)=O)CC3)CC2)C1)C(C)C (centres unmarked) [VTP-50469]
leukemia development in the knock-in murine model ([7]; knock-in murine model): prevent leukemia development | effect on NPM1c mutant AML cells in xenografts ([7]; oral inhibitor, xenografts): able to eradicate NPM1c mutant AML cells in xenografts

O=c1[nH]cc(F)c(=O)[nH]1 [5′FU, 5-fluorouracil]
cell death, chemotherapeutic alone [8]: without evident cell death | FOXM1 level, chemotherapeutic alone ([3]; HCT-116 and HCT-FET): FOXM1 upregulation
